According to US11891365B2, “3-alkyl-4-amido-bicyclic [4,5,0] hydroxamic acids as HDAC inhibitors” (Valo Health, Inc., priority 2015, dated 2024):

Target: T1, Full length human recombinant HDAC6 protein (Homo sapiens, UniProt Q9UBN7)
T1 sequence (Q9UBN7 1-1215): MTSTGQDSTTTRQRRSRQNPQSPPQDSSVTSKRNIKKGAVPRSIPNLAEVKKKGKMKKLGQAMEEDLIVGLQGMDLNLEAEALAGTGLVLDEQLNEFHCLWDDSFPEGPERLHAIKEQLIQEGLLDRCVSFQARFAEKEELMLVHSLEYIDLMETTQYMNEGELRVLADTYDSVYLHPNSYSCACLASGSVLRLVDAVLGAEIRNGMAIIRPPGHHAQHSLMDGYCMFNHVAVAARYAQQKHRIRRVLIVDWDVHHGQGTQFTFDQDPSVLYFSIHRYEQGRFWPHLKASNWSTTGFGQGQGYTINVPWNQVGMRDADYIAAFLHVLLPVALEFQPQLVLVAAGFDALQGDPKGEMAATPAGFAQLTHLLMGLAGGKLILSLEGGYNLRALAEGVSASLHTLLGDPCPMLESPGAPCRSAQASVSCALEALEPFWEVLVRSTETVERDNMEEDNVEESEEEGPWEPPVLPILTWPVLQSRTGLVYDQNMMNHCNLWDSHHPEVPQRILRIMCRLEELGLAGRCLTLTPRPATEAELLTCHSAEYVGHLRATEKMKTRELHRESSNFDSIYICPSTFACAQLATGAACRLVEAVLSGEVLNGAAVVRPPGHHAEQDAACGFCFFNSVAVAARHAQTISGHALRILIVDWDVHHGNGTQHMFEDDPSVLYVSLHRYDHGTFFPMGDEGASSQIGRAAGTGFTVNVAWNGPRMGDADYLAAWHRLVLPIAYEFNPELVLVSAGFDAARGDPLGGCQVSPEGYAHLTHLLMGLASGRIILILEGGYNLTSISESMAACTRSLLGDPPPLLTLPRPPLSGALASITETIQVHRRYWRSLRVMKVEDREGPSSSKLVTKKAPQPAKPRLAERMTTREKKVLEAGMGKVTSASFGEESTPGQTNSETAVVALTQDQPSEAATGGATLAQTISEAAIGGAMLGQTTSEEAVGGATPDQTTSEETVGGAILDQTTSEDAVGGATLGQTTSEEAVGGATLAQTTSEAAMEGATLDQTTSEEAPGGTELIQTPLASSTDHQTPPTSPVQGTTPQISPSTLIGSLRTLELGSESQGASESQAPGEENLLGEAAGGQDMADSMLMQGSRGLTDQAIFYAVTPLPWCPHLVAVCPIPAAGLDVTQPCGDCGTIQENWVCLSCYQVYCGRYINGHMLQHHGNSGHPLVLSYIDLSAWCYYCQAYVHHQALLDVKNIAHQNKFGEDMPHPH
Experiment: In vitro histone deacetylase assay: enzymatic HDAC6 electrophoretic mobility shift assay
Format: biochemical
Settings: 1 nM enzyme, 2 μM peptide substrate RHKK(Ac)-NH2, 25° C., 12 concentrations; read-out: Inhibitory Concentration (IC50) Values against HDAC6, Activity Range

| Structure (SMILES) | IC50 |
| --- | --- |
| O=C(NO)c1ccc2c(c1)OCCN(C(=O)C1CC1c1ccccc1)C2 (stereo not shown) [N-hydroxy-4-(2-phenylcyclopropane-1-carbonyl)-2,3,4,5-tetrahydrobenzo[f][1,4]oxazepine-8-carboxamide] | ≤ 100 nM |
| O=C(NO)c1ccc2c(c1)OCCN(C(=O)C1Oc3ccccc3C13CCNCC3)C2 (stereo not shown) [N-hydroxy-4-(2H-spiro[benzofuran-3,4′-piperidine]-2-carbonyl)-2,3,4,5-tetrahydrobenzo[f][1,4]oxazepine-8-carboxamide] | 100 to 500 nM |
| CCCNc1c(C(=O)N2CCOc3cc(C(=O)NO)ccc3C2)sc2ccccc12 [N-hydroxy-4-(3-(propylamino)benzo[b]thiophene-2-carbonyl)-2,3,4,5-tetrahydrobenzo[f][1,4]oxazepine-8-carboxamide] | ≤ 100 nM |
| O=C(NO)c1ccc2c(c1)OCCN(C(=O)C1CCC3(CCNCC3)CC1)C2 [N-hydroxy-4-(3-azaspiro[5.5]undecane-9-carbonyl)-2,3,4,5-tetrahydrobenzo[f][1,4]oxazepine-8-carboxamide] | ≤ 100 nM |
| O=C(NO)c1ccc2c(c1)OCCN(C(=O)CCO)C2 [N-hydroxy-4-(3-hydroxypropanoyl)-2,3,4,5-tetrahydrobenzo[f][1,4]oxazepine-8-carboxamide] | > 500 nM |
| COCC(C)(C)C(=O)N1CCOc2cc(C(=O)NO)ccc2C1 [N-hydroxy-4-(3-methoxy-2,2-dimethylpropanoyl)-2,3,4,5-tetrahydrobenzo[f][1,4]oxazepine-8-carboxamide] | ≤ 100 nM |
| COc1cccc(C(=O)N2CCOc3cc(C(=O)NO)ccc3C2)c1 [N-hydroxy-4-(3-methoxybenzoyl)-2,3,4,5-tetrahydrobenzo[f][1,4]oxazepine-8-carboxamide] | 100 to 500 nM |
| CC1(C(=O)N2CCOc3cc(C(=O)NO)ccc3C2)COC1 [N-hydroxy-4-(3-methyloxetane-3-carbonyl)-2,3,4,5-tetrahydrobenzo[f][1,4]oxazepine-8-carboxamide] | ≤ 100 nM |
| O=C(NO)c1ccc2c(c1)OCCN(C(=O)C1OC3(CCNCC3)c3ccccc31)C2 (stereo not shown) [N-hydroxy-4-(3H-spiro[isobenzofuran-1,4′-piperidine]-3-carbonyl)-2,3,4,5-tetrahydrobenzo[f][1,4]oxazepine-8-carboxamide] | 100 to 500 nM |
| O=C(NO)c1ccc2c(c1)OCCN(C(=O)CCC(F)(F)F)C2 [N-hydroxy-4-(4,4,4-trifluorobutanoyl)-2,3,4,5-tetrahydrobenzo[f][1,4]oxazepine-8-carboxamide] | 100 to 500 nM |
| O=C(NO)c1ccc2c(c1)OCCN(C(=O)c1ccc(C(F)(F)F)cc1)C2 [N-hydroxy-4-(4-(trifluoromethyl)benzoyl)-2,3,4,5-tetrahydrobenzo[f][1,4]oxazepine-8-carboxamide] | 100 to 500 nM |
| COCCC(C(=O)N1CCOc2cc(C(=O)NO)ccc2C1)c1ccccn1 (stereo not shown) [N-hydroxy-4-(4-methoxy-2-(pyridin-2-yl)butanoyl)-2,3,4,5-tetrahydrobenzo[f][1,4]oxazepine-8-carboxamide] | 100 to 500 nM |
| COc1ccc(C(=O)N2CCOc3ccc(C(=O)NO)cc3C2)cc1 [N-hydroxy-4-(4-methoxybenzoyl)-2,3,4,5-tetrahydrobenzo[f][1,4]oxazepine-7-carboxamide] | > 500 nM |
| COc1ccc(C(=O)N2CCOc3cc(C(=O)NO)ccc3C2)cc1 [N-hydroxy-4-(4-methoxybenzoyl)-2,3,4,5-tetrahydrobenzo[f][1,4]oxazepine-8-carboxamide] | ≤ 100 nM |
| COc1ccc(C(=O)N2CC(=O)Nc3ccc(C(=O)NO)cc3C2)cc1 [N-hydroxy-4-(4-methoxybenzoyl)-2-oxo-2,3,4,5-tetrahydro-1H-benzo[e][1,4]diazepine-7-carboxamide] | > 500 nM |
| COC1CCC(C(=O)N2CCOc3cc(C(=O)NO)ccc3C2)CC1 (stereo not shown) [N-hydroxy-4-(4-methoxycyclohexane-1-carbonyl)-2,3,4,5-tetrahydrobenzo[f][1,4]oxazepine-8-carboxamide] | ≤ 100 nM |
| CC1(C(=O)N2CCOc3cc(C(=O)NO)ccc3C2)CCOCC1 [N-hydroxy-4-(4-methyltetrahydro-2H-pyran-4-carbonyl)-2,3,4,5-tetrahydrobenzo[f][1,4]oxazepine-8-carboxamide] | ≤ 100 nM |
| O=C(NO)c1ccc2c(c1)OCCN(C(=O)c1ccc(N3CCOCC3)cc1)C2 [N-hydroxy-4-(4-morpholinobenzoyl)-2,3,4,5-tetrahydrobenzo[f][1,4]oxazepine-8-carboxamide] | 100 to 500 nM |
| O=C(NO)c1ccc2c(c1)OCCN(C(=O)C1(c3ccccc3)CCOCC1)C2 [N-hydroxy-4-(4-phenyltetrahydro-2H-pyran-4-carbonyl)-2,3,4,5-tetrahydrobenzo[f][1,4]oxazepine-8-carboxamide] | 100 to 500 nM |
| O=C(NO)c1ccc2c(c1)OCCN(C(=O)C1CC13CCNC3)C2 (stereo not shown) [N-hydroxy-4-(5-azaspiro[2.4]heptane-1-carbonyl)-2,3,4,5-tetrahydrobenzo[f][1,4]oxazepine-8-carboxamide] | > 500 nM |
| O=C(NO)c1ccc2c(c1)OCCN(C(=O)C1CC13CCCNC3)C2 (stereo not shown) [N-hydroxy-4-(5-azaspiro[2.5]octane-1-carbonyl)-2,3,4,5-tetrahydrobenzo[f][1,4]oxazepine-8-carboxamide] | > 500 nM |
| O=C(NO)c1ccc2c(c1)OCCN(C(=O)C1CC13CCNCC3)C2 (stereo not shown) [N-hydroxy-4-(6-azaspiro[2.5]octane-1-carbonyl)-2,3,4,5-tetrahydrobenzo[f][1,4]oxazepine-8-carboxamide] | 100 to 500 nM |

Second part, the compound after the results:

| IC50 | Structure (SMILES) |
| --- | --- |
| 100 to 500 nM | O=C(NO)c1ccc2c(c1)OCCN(C(=O)C(Oc1ccccc1)c1ccccc1)C2 (stereo not shown) [N-hydroxy-4-(2-phenoxy-2-phenylacetyl)-2,3,4,5-tetrahydrobenzo[f][1,4]oxazepine-8-carboxamide] |
| 100 to 500 nM | CCC(Oc1ccccc1)C(=O)N1CCOc2cc(C(=O)NO)ccc2C1 (stereo not shown) [N-hydroxy-4-(2-phenoxybutanoyl)-2,3,4,5-tetrahydrobenzo[f][1,4]oxazepine-8-carboxamide] |
| 100 to 500 nM | CC(Oc1ccccc1)C(=O)N1CCOc2cc(C(=O)NO)ccc2C1 (stereo not shown) [N-hydroxy-4-(2-phenoxypropanoyl)-2,3,4,5-tetrahydrobenzo[f][1,4]oxazepine-8-carboxamide] |
| 100 to 500 nM | O=C(NO)c1ccc2c(c1)OCCN(C(=O)C(c1ccccc1)n1cccn1)C2 (stereo not shown) [N-hydroxy-4-(2-phenyl-2-(1H-pyrazol-1-yl)acetyl)-2,3,4,5-tetrahydrobenzo[f][1,4]oxazepine-8-carboxamide] |
| 100 to 500 nM | O=C(NO)c1ccc2c(c1)OCCN(C(=O)C(c1ccccc1)n1cnnn1)C2 (stereo not shown) [N-hydroxy-4-(2-phenyl-2-(1H-tetrazol-1-yl)acetyl)-2,3,4,5-tetrahydrobenzo[f][1,4]oxazepine-8-carboxamide] |
| 100 to 500 nM | O=C(NO)c1ccc2c(c1)OCCN(C(=O)C(OCC(F)(F)F)c1ccccc1)C2 (stereo not shown) [N-hydroxy-4-(2-phenyl-2-(2,2,2-trifluoroethoxy)acetyl)-2,3,4,5-tetrahydrobenzo[f][1,4]oxazepine-8-carboxamide] |
| > 500 nM | O=C(NO)c1ccc2c(c1)OCCN(C(=O)C(OC1CCOCC1)c1ccccc1)C2 (stereo not shown) [N-hydroxy-4-(2-phenyl-2-((tetrahydro-2H-pyran-4-yl)oxy)acetyl)-2,3,4,5-tetrahydrobenzo[f][1,4]oxazepine-8-carboxamide] |
| 100 to 500 nM | CCC(C(=O)N1CCOc2cc(C(=O)NO)ccc2C1)c1ccccc1 (stereo not shown) [N-hydroxy-4-(2-phenylbutanoyl)-2,3,4,5-tetrahydrobenzo[f][1,4]oxazepine-8-carboxamide] |
| 100 to 500 nM | COc1ccc(CC(C(=O)N2CCOc3cc(C(=O)NO)ccc3C2)c2ccccc2)cc1 (stereo not shown) [N-hydroxy-4-(3-(4-methoxyphenyl)-2-phenylpropanoyl)-2,3,4,5-tetrahydrobenzo[f][1,4]oxazepine-8-carboxamide] |
| 100 to 500 nM | CC(CC(=O)N1CCOc2cc(C(=O)NO)ccc2C1)c1ccccc1 (stereo not shown) [N-hydroxy-4-(3-phenylbutanoyl)-2,3,4,5-tetrahydrobenzo[f][1,4]oxazepine-8-carboxamide] |
| ≤ 100 nM | O=C(NO)c1ccc2c(c1)OCCN(C(=O)CCc1ccccc1)C2 [N-hydroxy-4-(3-phenylpropanoyl)-2,3,4,5-tetrahydrobenzo[f][1,4]oxazepine-8-carboxamide] |
| ≤ 100 nM | O=C(NO)c1ccc2c(c1)OCCN(C(=O)c1ccc(Oc3ccccc3)cc1)C2 [N-hydroxy-4-(4-phenoxybenzoyl)-2,3,4,5-tetrahydrobenzo[f][1,4]oxazepine-8-carboxamide] |
